According to patent US20190254285A1, “SODIUM PHOSPHITE COMBINATIONS” (priority 2016, published 2019):

Legend:
Type in all cases: in vivo
powdery mildew [1] = experiment: Powdery mildew on cucumber leaf disks; details: for Surface area (%): phosphite 16 mM, sulfur 0.1 g/L
Experimental: (§1) Leaves were taken from 5 to 6 week old tomato plant. Per treatment 5 ml was sprayed over 5 leaves and dried for 1 hour. Circular disks were punched from the treated leaves with a diameter of 11 mm. 5 disks per treatment were put on water agar in 90 mm ø petri dishes. Water agar was made by sterilizing agar-agar (5 g/L, Carl Roth), benzimidazole (30 mg/L, Sigma-Aldrich) and antibiotic tetracycline hydrochloride (25 mg/L, Carl Roth) in water. Disks were infected by brushing powdery mildew spores from an infected leave until disks were visually covered by spores. After 10 days the surface area covered by powdery mildew was measured by putting pictures of the disks through an online image analyzer. Efficacy was calculated by comparing the treatments against the untreated control. Replicates: 20 disks were used per treatment.
All phosphite concentrations were tested at a concentration of 16 mM of phosphite.
Similar to Example 7 with the following differences: Leaf disk were taken from the dicotyledon leaves when the cucumber was around 2 weeks old. 5 disks per treatment were put on water agar in 90 mm ø petri dishes, with a total of 10 leaf disks per treatment. The formulated sulfur was tested at a concentration of 0.1 g sulfur/L. Assessment was done after 14 and 21 days after infection.

black sigatoka [2] = experiment: Black sigatoka on banana plants, single leaf test, leaf 1 preventive, VOLLEY 88 OL; details: for Area infected (%) / Efficacy: VOLLEY 88 OL 5.525 L/ha, phosphites 2 mol/l at 3 liter/ha; for Efficacy: vs untreated control
Experimental: (§2) A single leaf test was established in a research station located in the community of “Anita Grande,” county of Jimenez, province of Limon, Costa Rica (latitude 10°15′14.15″N, longitude 83°44′20.29″W).
(§3) Every treatment was established in individual plants. Treatments were applied to leaf number 1 to determine their effect as preventive. Leaf position is counted from top to bottom, whereby leaf number 1 is closest to the unfolded leaf. Treatments were distributed systematically to facilitate their location in the field.
(§4) Product applications were done in an area of 10×10 cm, with a special equipment designed to simulate aerial applications. Application was done at 35 pound-force per square inch. Since weather conditions were highly conducive for disease development, and inoculum density was very high, no artificial inoculation was done. All treatments were applied to the same position on the leaf to minimize experimental error. All treatments were applied at the equivalent volume of 25 L ha^−1, as it is done commercially. A total of 3 sprays were applied, application A at Day 0, application B at 7 days after application A (DAA), and application C at day 13 DAA. VOLLEY® 88 OL was sprayed at 5.525 L/ha and the different phosphites were applied at the same PO3 concentration of 2 mol/l and were sprayed at 3 liter/ha.
Mixture of products was done with an electric stirrer (DEWALT® General Purpose, model DW9107), equipped with a standard propel.
(§5) For the evaluation of the efficacy, the diseased area that was affected in the 10×10 cm leaf area was recorded. Evaluations were done 23, 30 and 36 DAA. Efficacy was calculated by comparing the treatments against the untreated control.

black sigatoka [3] = experiment: Black sigatoka on banana plants, single leaf test, leaf 3 curative, Bravo 72 SC; details: for Area infected (%) / Efficacy: 16 DAA, leaf 3 curative, Bravo 72 SC 0.875 liter/ha, phosphites 3 L/ha; for Efficacy: vs untreated control
Experimental: as §2, §3, §4, §5
Similar to Example 9, with the following differences: Treatments and measurements were applied to leaf number 3, to determine their effect as curative, and one measurement was performed at 8 days after application A (DAA).
Similar to Example 10, with the following differences: Bravo 72 SC (chlorothalonil; Syngenta) was applied at 0.875 liter/ha instead of DITHANE® 60 SC and the phosphites were spayed at a rate of 3 L/ha. One measurement was done at 16 DAA.

powdery mildew [4] = experiment: Powdery mildew on tomato leaf disks; details: for Surface area (%): leaf disk area covered by powdery mildew after 10 days, phosphite 16 mM, sulfur 0.5 g per liter
Experimental: as §1, with “After 10 days the surface area covered by powdery mildew was measured by putting pictures of the disks through an online image analyzer.” left out, “treatment. All phosphite concentrations were tested at a concentration of 16 mM of phosphite. Formulated sulfur was applied at a dose of 0.5 g sulfur per liter. Formulated sulfur consists of the following elements: Sulfur±50% (w/w); Anionic surfactant<3%; Non-ionic surfactant <3%; Water±44%.” for “treatment.”

black sigatoka [5] = experiment: Black sigatoka on banana plants, single leaf test, leaf 1 preventive, DITHANE 60 SC; details: for Area infected (%) / Efficacy: 23 DAA, leaf 1 preventive, DITHANE 60 SC 5 liter/ha; for Area infected (%): phosphites 2 mol/l at 3 liter/ha; for Efficacy: vs untreated control
Experimental: as §2, §3, §4, §5
Similar to Example 8, with the following differences: DITHANE® 60 SC (Dow AgroSciences) at a rate of 5 liter/ha was applied instead of […] and only one measurement was performed at 23 days after application A (DAA).

Penicillium discolor = Penicillium discolor rot on wounded apples cv Gala; details: for Efficacy (%): rot surface area vs untreated control, phosphite 16 mM, natamycin 100 ppm
Experimental: Tested fruit: apples cv Gala from organic origin/SKAL certified. SKAL is a semi-governmental Dutch organization that controls organic production in the Netherlands. Wounds of the apples were checked at day 3. All phosphite concentrations were tested at a concentration of 16 mM of phosphonate. Natamycin (95%, Freda) solo and in combination was tested at a concentration of 100 ppm. […] Used pathogen: Penicillium discolor spore-suspension containing 4*10E6 spores/ml. Application: The fruit peel of the apple was damaged with a cork borer, ø4 mm and depth ˜0.5 cm into the fruit, with 2 wounds per apple. 40 microliter of a freshly prepared spore suspension of P. discolor was applied by pipette onto each wound. Subsequently, the spore-suspension was allowed to air-dry for 4 hours. Then, 50 microliter of a treatment as presented in the list above was applied by pipette to each wound. All fruits were kept at room temperature (20° C.). Wounds of the apples were checked after 4, 7 and 9 days of incubation. The efficacy is calculated by measuring the surface area (square mm) of the rot on the apples, and compared to the untreated control (see Table 4). Replicates: All treatments for the apple experiment were performed on six individual apples with two wounds each resulting in 12 wounds per treatment.

## N.N.O=[PH](O)O [(NH4)2HPO3]
Powdery mildew [1]; Day 14 after infection
  Surface area (%): 7.21%
Powdery mildew [1]; Day 21 after infection
  Surface area (%): 5.61%
Black sigatoka [2]; 23 DAA
  Area infected (%): 9.8%
  Efficacy: 48.4
Black sigatoka [2]; 30 DAA
  Area infected (%): 26.2%
  Efficacy: 39.1
Black sigatoka [2]; 36 DAA
  Area infected (%): 34.0%
  Efficacy: 34.4
Black sigatoka [3]
  Area infected (%): 51.0%
  Efficacy: 28.2
Powdery mildew [4]
  Surface area (%): 66.32%
Black sigatoka [5]
  Area infected (%): 8.0%
  Efficacy: 57.9
Penicillium discolor; Day 4
  Efficacy (%): 71%
Penicillium discolor; Day 7
  Efficacy (%): 60%
Penicillium discolor; Day 9
  Efficacy (%): 55%

## O=[PH]([O-])[O-].[K+].[K+] [Treatment K2HPO3]
Powdery mildew [1]; Day 14 after infection
  Surface area (%): 5.18%
Powdery mildew [1]; Day 21 after infection
  Surface area (%): 4.84%
Black sigatoka [2]; 23 DAA
  Area infected (%): 9.2%
  Efficacy: 51.6
Black sigatoka [2]; 30 DAA
  Area infected (%): 26.4%
  Efficacy: 38.6
Black sigatoka [2]; 36 DAA
  Area infected (%): 33.0%
  Efficacy: 26.5
Black sigatoka [3]
  Area infected (%): 68.0%
  Efficacy: 4.2
Powdery mildew [4]
  Surface area (%): 58.68%
Black sigatoka [5]
  Area infected (%): 10.6%
  Efficacy: 44.2
Penicillium discolor; Day 4
  Efficacy (%): 59%
Penicillium discolor; Day 7
  Efficacy (%): 27%
Penicillium discolor; Day 9
  Efficacy (%): 22%

## disodium hydrogen phosphite [Na2HPO3]
Powdery mildew [1]; Day 14 after infection
  Surface area (%): 9.15%
Powdery mildew [1]; Day 21 after infection
  Surface area (%): 7.38%
Powdery mildew [1]; conclusion from Table 12
  Increase of the fungal efficacy of sulfur compared with other phosphite salts: increases the fungal efficacy of sulfur the best
Black sigatoka [2]; 23 DAA
  Area infected (%): 18.8%
  Efficacy: 1.1
Black sigatoka [2]; 30 DAA
  Area infected (%): 31.0%
  Efficacy: 27.9
Black sigatoka [2]; 36 DAA
  Area infected (%): 38.0%
  Efficacy: 26.9
Black sigatoka [2]; conclusion from Table 8
  Increase of the fungal efficacy of VOLLEY 88 OL compared with other phosphite salts: increases the fungal efficacy of VOLLEY® 88 OL the best
Black sigatoka [3]
  Area infected (%): 68.0%
  Efficacy: 4.2
Black sigatoka [3]; conclusion from Table 11
  Increase of the fungal efficacy of Bravo 72 SC compared with other phosphite salts: increases the fungal efficacy of Bravo 72 SC the best
Powdery mildew [4]; conclusion from Table 7
  Increase of the fungal efficacy of sulphur compared with other phosphite salts: increases the fungal efficacy of sulphur the best
Powdery mildew [4]
  Surface area (%): 51.20%
Black sigatoka [5]
  Area infected (%): 12.6%
  Efficacy: 33.7
Black sigatoka [5]; conclusion from Table 9, preventive
  Increase of the fungal efficacy of DITHANE 60 SC compared with other phosphite salts: increases the fungal efficacy of DITHANE® 60 SC the best
Penicillium discolor; Day 4
  Efficacy (%): 88%
Penicillium discolor; Day 7
  Efficacy (%): 74%
Penicillium discolor; Day 9
  Efficacy (%): 64%
Penicillium discolor; equimolar phosphite concentrations, days 4, 7, 9
  Increase of the fungal efficacy of natamycin compared with other phosphite salts: increases the fungal efficacy of natamycin the best at all time points
